Assay results published in publication PMC9133015 (Nature Communications, 2022).
Several values for one entry are separate records, joined by “and”; a condition that tells them apart may be missing. Equal values may be shown once. Read-outs that look alike come from different tables or passages of the source.

Experiments:
DYRK1A = target: T1, DYRK1A (Homo sapiens, UniProt Q13627); assay: DYRKs kinase activity assay (33P-ATP, DYRKtide substrate): DYRK1A; format: biochemical
T1 construct: purchased Reaction Biology Corporation (assay service)

Pharmacokinetic profiles = format: in vivo; conditions: SD rats

In the case of `CCN1CCN(C(=O)c2ccc(Nc3ncc(F)c(-c4ccc5nc(N(C)C)sc5c4)n3)nc2)CC1` [YK-2-69], the IC50 (DYRK1A) is reported as greater than 1 µM, the “% Inhibition DYRK1A” value (DYRK1A; 0.000508053 µM, duplicates) is reported as -3.57% and 0.43% and the “% Inhibition DYRK1A” value (DYRK1A; 0.00152416 µM, duplicates) is reported as -1.37% and 1.70%. The “% Inhibition DYRK1A” value (DYRK1A; 0.00457247 µM, duplicates) was 3.49% and -1.24%, the “% Inhibition DYRK1A” value (DYRK1A; 0.0137174 µM, duplicates) was 0.24% and -4.62% and the “% Inhibition DYRK1A” value (DYRK1A; 0.0411523 µM, duplicates) was -1.12% and -1.40%. The “% Inhibition DYRK1A” value (DYRK1A; 0.123457 µM, duplicates) was 14.11%, the inhibition at 0.123457 µM (DYRK1A; 0.123457 µM, duplicates) was 10.3% and the “% Inhibition DYRK1A” value (DYRK1A; 0.37037 µM, duplicates) was 34.28%. The inhibition at 0.37037 µM (DYRK1A; 0.37037 µM, duplicates) was 26%, the “% Inhibition DYRK1A” value (DYRK1A; 1.11111 µM, duplicates) was 40.80% and the inhibition at 1.11111 µM (DYRK1A; 1.11111 µM, duplicates) was 45.5%. The “% Inhibition DYRK1A” value (DYRK1A; 3.33333 µM, duplicates) was 66.09%, the inhibition at 3.33333 µM (DYRK1A; 3.33333 µM, duplicates) was 64.9% and the “% Inhibition DYRK1A” value (DYRK1A; 10 µM, duplicates) was 69.07%. The inhibition at 10 µM (DYRK1A; 10 µM, duplicates) was 68.2%, the “selectivity over DYRK1A” value (DYRK1A; vs DYRK2) was “more than 100 fold” and the “Con. (individual rats NO.1-3)” value (Pharmacokinetic profiles; IV 1 mg/kg, 0.033 h, 1 mg/kg) was 1120 ng/mL and 712 ng/mL. The “Con. (individual rats NO.1-3)” value (Pharmacokinetic profiles; IV 1 mg/kg, 0.083 h, 1 mg/kg) was 959 ng/mL and 574 ng/mL, the “Con. (individual rats NO.1-3)” value (Pharmacokinetic profiles; IV 1 mg/kg, 0.25 h, 1 mg/kg) was 611 ng/mL and 402 ng/mL and the “Con. (individual rats NO.1-3)” value (Pharmacokinetic profiles; IV 1 mg/kg, 0.5 h, 1 mg/kg) was 480 ng/mL and 383 ng/mL. For the same compound, the “Con. (individual rats NO.1-3)” value (Pharmacokinetic profiles; IV 1 mg/kg, 1 h, 1 mg/kg) was 355 ng/mL and 310 ng/mL, the “Con. (individual rats NO.1-3)” value (Pharmacokinetic profiles; IV 1 mg/kg, 2 h, 1 mg/kg) was 199 ng/mL and 175 ng/mL and the “Con. (individual rats NO.1-3)” value (Pharmacokinetic profiles; IV 1 mg/kg, 4 h, 1 mg/kg) was 96.9 ng/mL and 91.7 ng/mL. The “Con. (individual rats NO.1-3)” value (Pharmacokinetic profiles; IV 1 mg/kg, 6 h, 1 mg/kg) was 63.9 ng/mL and 64.4 ng/mL, the “Con. (individual rats NO.1-3)” value (Pharmacokinetic profiles; IV 1 mg/kg, 8 h, 1 mg/kg) was 45.3 ng/mL and 36.2 ng/mL and the “Con. (individual rats NO.1-3)” value (Pharmacokinetic profiles; IV 1 mg/kg, 12 h, 1 mg/kg) was 14.4 ng/mL. For the same compound, the “Con. (individual rats NO.1-3)” value (Pharmacokinetic profiles; PO 10 mg/kg, 0.083 h, 10 mg/kg) was 9.74 ng/mL and 9.99 ng/mL, the “Con. (individual rats NO.1-3)” value (Pharmacokinetic profiles; PO 10 mg/kg, 0.25 h, 10 mg/kg) was 82.5 ng/mL and 106 ng/mL and the “Con. (individual rats NO.1-3)” value (Pharmacokinetic profiles; PO 10 mg/kg, 0.5 h, 10 mg/kg) was 228 ng/mL and 221 ng/mL. For the same compound, the “Con. (individual rats NO.1-3)” value (Pharmacokinetic profiles; PO 10 mg/kg, 1 h, 10 mg/kg) was 437 ng/mL and 376 ng/mL, the “Con. (individual rats NO.1-3)” value (Pharmacokinetic profiles; PO 10 mg/kg, 2 h, 10 mg/kg) was 729 ng/mL and 559 ng/mL and the “Con. (individual rats NO.1-3)” value (Pharmacokinetic profiles; PO 10 mg/kg, 4 h, 10 mg/kg) was 695 ng/mL and 609 ng/mL. The “Con. (individual rats NO.1-3)” value (Pharmacokinetic profiles; PO 10 mg/kg, 6 h, 10 mg/kg) was 538 ng/mL and 544 ng/mL, the “Con. (individual rats NO.1-3)” value (Pharmacokinetic profiles; PO 10 mg/kg, 8 h, 10 mg/kg) was 435 ng/mL and 507 ng/mL and the “Con. (individual rats NO.1-3)” value (Pharmacokinetic profiles; PO 10 mg/kg, 12 h, 10 mg/kg) was 220 ng/mL and 279 ng/mL. The “Con. (individual rats NO.1-3)” value (Pharmacokinetic profiles; PO 10 mg/kg, 24 h, 10 mg/kg) was 38.4 ng/mL and 66 ng/mL, the concentration at 0.033 h (Pharmacokinetic profiles; SD, rat, serum, iv, 1 mg/kg, IV 1 mg/kg, 0.033 h, read-out: Con. (individual rats NO.1-3)) was 1.09 µg/mL and the concentration at 2 h (Pharmacokinetic profiles; SD, rat, serum, iv, 1 mg/kg, IV 1 mg/kg, 2 h, read-out: Con. (individual rats NO.1-3)) was 0.209 µg/mL. The concentration at 2 h (Pharmacokinetic profiles; SD, rat, serum, iv, 1 mg/kg, IV 1 mg/kg, 2 h, read-out: Con. Mean) was 0.194 µg/mL, the concentration at 4 h (Pharmacokinetic profiles; SD, rat, serum, iv, 1 mg/kg, IV 1 mg/kg, 4 h, read-out: Con. (individual rats NO.1-3)) was 0.097 µg/mL and the concentration at 4 h (Pharmacokinetic profiles; SD, rat, serum, iv, 1 mg/kg, IV 1 mg/kg, 4 h, read-out: Con. Mean) was 0.0952 µg/mL. It also gave a concentration at 6 h (Pharmacokinetic profiles; SD, rat, serum, iv, 1 mg/kg, IV 1 mg/kg, 6 h, read-out: Con. (individual rats NO.1-3)) of 0.0578 µg/mL, a concentration at 6 h (Pharmacokinetic profiles; SD, rat, serum, iv, 1 mg/kg, IV 1 mg/kg, 6 h, read-out: Con. Mean) of 0.062 µg/mL and a concentration at 8 h (Pharmacokinetic profiles; SD, rat, serum, iv, 1 mg/kg, IV 1 mg/kg, 8 h, read-out: Con. (individual rats NO.1-3)) of 0.043 µg/mL. For the same compound, the concentration at 8 h (Pharmacokinetic profiles; SD, rat, serum, iv, 1 mg/kg, IV 1 mg/kg, 8 h, read-out: Con. Mean) was 0.0415 µg/mL, the concentration at 12 h (Pharmacokinetic profiles; SD, rat, serum, iv, 1 mg/kg, IV 1 mg/kg, 12 h, read-out: Con. (individual rats NO.1-3)) was 0.0164 µg/mL and the concentration at 12 h (Pharmacokinetic profiles; SD, rat, serum, iv, 1 mg/kg, IV 1 mg/kg, 12 h, read-out: Con. Mean) was 0.0169 µg/mL. The concentration at 0.083 h (Pharmacokinetic profiles; SD, rat, serum, po, 10 mg/kg, PO 10 mg/kg, 0.083 h, read-out: Con. (individual rats NO.1-3)) was 0.00972 µg/mL, the concentration at 0.083 h (Pharmacokinetic profiles; SD, rat, serum, po, 10 mg/kg, PO 10 mg/kg, 0.083 h, read-out: Con. Mean) was 0.00982 µg/mL and the concentration at 0.25 h (Pharmacokinetic profiles; SD, rat, serum, po, 10 mg/kg, PO 10 mg/kg, 0.25 h, read-out: Con. (individual rats NO.1-3)) was 0.0907 µg/mL. It also gave a concentration at 0.25 h (Pharmacokinetic profiles; SD, rat, serum, po, 10 mg/kg, PO 10 mg/kg, 0.25 h, read-out: Con. Mean) of 0.0931 µg/mL and a concentration at 0.5 h (Pharmacokinetic profiles; SD, rat, serum, po, 10 mg/kg, PO 10 mg/kg, 0.5 h, read-out: Con. (individual rats NO.1-3)) of 0.21 µg/mL.
